According to the NIST ThermoML archive (doi:10.1016/j.fluid.2016.02.009):

Conditions: Liquid, Vibrating tube method

COC(C)(C)C [2-methoxy-2-methylpropane]
mass density [kg/m3]
Conditions | 283.15 K | 288.15 K | 293.15 K | 298.15 K | 303.15 K | 308.15 K | 313.15 K | 318.15 K | 323.15 K
100 kPa | 750.94 | 745.79 | 740.59 | 735.34 | 730.04 | 724.69 | 719.29 | 713.84 | 708.45
5000 kPa | 756.29 | 751.33 | 746.34 | 741.32 | 736.27 | 731.19 | 726.07 | 720.92 | 715.73
10000 kPa | 761.29 | 756.52 | 751.7 | 746.89 | 742.05 | 737.18 | 732.27 | 727.36 | 722.39
15000 kPa | 765.93 | 761.32 | 756.68 | 752.04 | 747.37 | 742.69 | 737.97 | 733.26 | 728.51
20000 kPa | 770.32 | 765.86 | 761.35 | 756.85 | 752.37 | 747.84 | 743.29 | 738.74 | 734.2
25000 kPa | 774.48 | 770.15 | 765.77 | 761.42 | 757.05 | 752.67 | 748.27 | 743.91 | 739.51
30000 kPa | 778.47 | 774.24 | 770.01 | 765.75 | 761.51 | 757.26 | 752.99 | 748.75 | 744.49
35000 kPa | 782.29 | 778.15 | 774 | 769.88 | 765.74 | 761.6 | 757.46 | 753.35 | 749.2
40000 kPa | 785.94 | 781.89 | 777.85 | 773.81 | 769.79 | 765.75 | 761.71 | 757.7 | 753.67
45000 kPa | 789.45 | 785.49 | 781.54 | 777.6 | 773.65 | 769.71 | 765.77 | 761.86 | 757.92
50000 kPa | 792.86 | 788.97 | 785.09 | 781.23 | 777.36 | 773.49 | 769.65 | 765.83 | 761.98
55000 kPa | 796.13 | 792.3 | 788.51 | 784.71 | 780.95 | 777.14 | 773.39 | 769.63 | 765.85
60000 kPa | 799.29 | 795.55 | 791.81 | 788.1 | 784.37 | 780.65 | 776.97 | 773.29 | 769.61
65000 kPa | 802.37 | 798.67 | 795 | 791.36 | 787.7 | 784.04 | 780.41 | 776.82 | 773.22

CCCCCOCCCCC [dipentyl ether]
Conditions | mass density [kg/m3]
283.15 K, 100 kPa | 790.99
283.15 K, 5000 kPa | 794.85
283.15 K, 10000 kPa | 798.47
283.15 K, 15000 kPa | 801.9
283.15 K, 20000 kPa | 805.2
283.15 K, 25000 kPa | 808.38
283.15 K, 30000 kPa | 811.47
283.15 K, 35000 kPa | 814.44
283.15 K, 40000 kPa | 817.31
283.15 K, 45000 kPa | 820.12
283.15 K, 50000 kPa | 822.84
283.15 K, 55000 kPa | 825.48
283.15 K, 60000 kPa | 828.06
283.15 K, 65000 kPa | 830.58
288.15 K, 100 kPa | 786.98
288.15 K, 5000 kPa | 790.95
288.15 K, 10000 kPa | 794.65
288.15 K, 15000 kPa | 798.17
288.15 K, 20000 kPa | 801.55
288.15 K, 25000 kPa | 804.81
288.15 K, 30000 kPa | 807.94
288.15 K, 35000 kPa | 810.97
288.15 K, 40000 kPa | 813.93
288.15 K, 45000 kPa | 816.78
288.15 K, 50000 kPa | 819.54
288.15 K, 55000 kPa | 822.24
288.15 K, 60000 kPa | 824.87
288.15 K, 65000 kPa | 827.41
293.15 K, 100 kPa | 782.96
293.15 K, 5000 kPa | 787.04
293.15 K, 10000 kPa | 790.83
293.15 K, 15000 kPa | 794.44
293.15 K, 20000 kPa | 797.91
293.15 K, 25000 kPa | 801.23
293.15 K, 30000 kPa | 804.44
293.15 K, 35000 kPa | 807.54
293.15 K, 40000 kPa | 810.53
293.15 K, 45000 kPa | 813.44
293.15 K, 50000 kPa | 816.26
293.15 K, 55000 kPa | 819.01
293.15 K, 60000 kPa | 821.67
293.15 K, 65000 kPa | 824.26
298.15 K, 100 kPa | 778.94
298.15 K, 5000 kPa | 783.12
298.15 K, 10000 kPa | 787.02
298.15 K, 15000 kPa | 790.73
298.15 K, 20000 kPa | 794.27
298.15 K, 25000 kPa | 797.69
298.15 K, 30000 kPa | 800.97
298.15 K, 35000 kPa | 804.13
298.15 K, 40000 kPa | 807.2
298.15 K, 45000 kPa | 810.16
298.15 K, 50000 kPa | 813.04
298.15 K, 55000 kPa | 815.82
298.15 K, 60000 kPa | 818.54
298.15 K, 65000 kPa | 821.19
303.15 K, 100 kPa | 774.9
303.15 K, 5000 kPa | 779.22
303.15 K, 10000 kPa | 783.2
303.15 K, 15000 kPa | 787
303.15 K, 20000 kPa | 790.65
303.15 K, 25000 kPa | 794.13
303.15 K, 30000 kPa | 797.48
303.15 K, 35000 kPa | 800.72
303.15 K, 40000 kPa | 803.84
303.15 K, 45000 kPa | 806.86
303.15 K, 50000 kPa | 809.78
303.15 K, 55000 kPa | 812.62
303.15 K, 60000 kPa | 815.39
303.15 K, 65000 kPa | 818.05
308.15 K, 100 kPa | 770.87
308.15 K, 5000 kPa | 775.29
308.15 K, 10000 kPa | 779.38
308.15 K, 15000 kPa | 783.28
308.15 K, 20000 kPa | 787
308.15 K, 25000 kPa | 790.57
308.15 K, 30000 kPa | 793.99
308.15 K, 35000 kPa | 797.3
308.15 K, 40000 kPa | 800.48
308.15 K, 45000 kPa | 803.56
308.15 K, 50000 kPa | 806.55
308.15 K, 55000 kPa | 809.43
308.15 K, 60000 kPa | 812.24
308.15 K, 65000 kPa | 814.95
313.15 K, 100 kPa | 766.82
313.15 K, 5000 kPa | 771.35
313.15 K, 10000 kPa | 775.57
313.15 K, 15000 kPa | 779.56
313.15 K, 20000 kPa | 783.37
313.15 K, 25000 kPa | 787.03
313.15 K, 30000 kPa | 790.53
313.15 K, 35000 kPa | 793.9
313.15 K, 40000 kPa | 797.15
313.15 K, 45000 kPa | 800.28
313.15 K, 50000 kPa | 803.33
313.15 K, 55000 kPa | 806.26
313.15 K, 60000 kPa | 809.11
313.15 K, 65000 kPa | 811.88
318.15 K, 100 kPa | 762.76
318.15 K, 5000 kPa | 767.42
318.15 K, 10000 kPa | 771.74
318.15 K, 15000 kPa | 775.84
318.15 K, 20000 kPa | 779.77
318.15 K, 25000 kPa | 783.5
318.15 K, 30000 kPa | 787.08
318.15 K, 35000 kPa | 790.52
318.15 K, 40000 kPa | 793.82
318.15 K, 45000 kPa | 797.02
318.15 K, 50000 kPa | 800.1
318.15 K, 55000 kPa | 803.09
318.15 K, 60000 kPa | 806
318.15 K, 65000 kPa | 808.83
323.15 K, 100 kPa | 758.69
323.15 K, 5000 kPa | 763.48
323.15 K, 10000 kPa | 767.94
323.15 K, 15000 kPa | 772.13
323.15 K, 20000 kPa | 776.12
323.15 K, 25000 kPa | 779.95
323.15 K, 30000 kPa | 783.62
323.15 K, 35000 kPa | 787.13
323.15 K, 40000 kPa | 790.51
323.15 K, 45000 kPa | 793.75
323.15 K, 50000 kPa | 796.9
323.15 K, 55000 kPa | 799.95
323.15 K, 60000 kPa | 802.89
323.15 K, 65000 kPa | 805.77
328.15 K, 100 kPa | 754.6
328.15 K, 5000 kPa | 759.51
328.15 K, 10000 kPa | 764.08
328.15 K, 15000 kPa | 768.39
328.15 K, 20000 kPa | 772.51
328.15 K, 25000 kPa | 776.42
328.15 K, 30000 kPa | 780.18
328.15 K, 35000 kPa | 783.75
328.15 K, 40000 kPa | 787.17
328.15 K, 45000 kPa | 790.5
328.15 K, 50000 kPa | 793.7
328.15 K, 55000 kPa | 796.82
328.15 K, 60000 kPa | 799.82
328.15 K, 65000 kPa | 802.72
333.15 K, 100 kPa | 750.51
333.15 K, 5000 kPa | 755.54
333.15 K, 10000 kPa | 760.26
333.15 K, 15000 kPa | 764.69
333.15 K, 20000 kPa | 768.87
333.15 K, 25000 kPa | 772.87
333.15 K, 30000 kPa | 776.68
333.15 K, 35000 kPa | 780.35
333.15 K, 40000 kPa | 783.87
333.15 K, 45000 kPa | 787.29
333.15 K, 50000 kPa | 790.54
333.15 K, 55000 kPa | 793.66
333.15 K, 60000 kPa | 796.72
333.15 K, 65000 kPa | 799.67
